Blank lines part the entries; values can stand above or below the molecule they belong to.
Assays:
BPI [1] = target: T1, BPI (Homo sapiens, UniProt P17213); assay: BPI binding assay on Streptavidin-coated plates (biotinylated LPS or ODN 1826), direct and competitive
T1 construct: aa32-487 of the huBPI respectively aa28-483 of muBPI; HA signal peptide (N); made in house; host or cells: HEK293T
T1 sequence (P17213 32-487): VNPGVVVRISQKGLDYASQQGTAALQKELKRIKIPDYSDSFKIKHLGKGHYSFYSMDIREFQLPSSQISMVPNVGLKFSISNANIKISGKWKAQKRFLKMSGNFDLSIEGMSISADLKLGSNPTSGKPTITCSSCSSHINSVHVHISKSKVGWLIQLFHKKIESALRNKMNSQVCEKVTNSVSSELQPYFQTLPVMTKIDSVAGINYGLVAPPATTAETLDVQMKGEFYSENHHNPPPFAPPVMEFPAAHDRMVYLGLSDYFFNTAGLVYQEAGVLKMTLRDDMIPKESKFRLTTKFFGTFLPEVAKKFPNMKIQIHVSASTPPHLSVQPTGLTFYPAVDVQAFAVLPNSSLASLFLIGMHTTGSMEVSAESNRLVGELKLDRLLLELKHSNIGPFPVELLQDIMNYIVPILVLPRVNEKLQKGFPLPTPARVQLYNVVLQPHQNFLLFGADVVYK
Method: FIG. 7 depicts the binding of BPI to TLR ligands. […] Competition of binding was assessed for different variants of CpG ODNs ([…]) and the TLR3 agonist Poly(I:C) in ODN 1826 coated plates.
Streptavidin-coated plates were incubated with biotinylated LPS (n=3). Competition of binding was assessed for lipoarabinomannan as exemplified for phosphatidyl-inositol lipoarabinomannan (PiLAM).
(§1) MST was performed as described for example 5. PiLAM and PiLM were ordered from Invivogen (San Diego, CA, USA). BPI binding assays were performed by incubating Streptavidin-coated 96-well plates (Nunc™ Immobilizer™ Streptavidin F96 clear, Thermo Fisher Scientific, Waltham, MA, USA) with LPS biotin (2 μg/ml) in PBS overnight at 23° C. with gentle agitation. After washing with assay buffer (150 mM NaCl, 50 mM HEPES, Sigma Aldrich, Taufkirchen, Germany) containing 0.01% Casein, plates were blocked with 10 g/l BSA (Sigma Aldrich, Taufkirchen, Germany) at 37° C. and washed again. Thereafter, ligands were preincubated with 20 nM BPI in assay buffer containing 1 g/l BSA for 30 min and loaded onto the plates. Bound BPI was detected by murine anti-human BPI monoclonal antibody (Cat.-No. HM2042, Hycult Biotech, Uden, Netherlands) and HRP-conjugated rabbit anti-mouse IgG (Cat.-No. 315-035-048, Dianova, Hamburg, Germany). TMB (BD OptEIA™ TMB Substrate Reagent Set, BD Biosciences, Heidelberg, Germany) was used as a substrate for peroxidase. After addition of 1 N HCl, absorbance was measured at 450 nm. Absorbance indicates binding, the higher the absorbance the higher the binding of BPI to the coated well. Preincubation with a BPI ligand inhibits binding in a concentration-dependent manner.

BMDCs = assay: Cytokine protein secretion by BMDCs (Luminex); type: cell-based, C57BL/6J mice; details: Zymd 5 μg/ml, bLP 10 nM; Luminex, n>7, 4h (FIG. 3)
Method: All methods mentioned in this example were carried out as described in the preceding examples. Cells were stimulated with Zymosan depleted (Zymd, 5 μg/ml) from Invivogen (San Diego, CA, USA) or (R)-Pam3CSK4 (bLP, 10 nM) from EMC Microcollections GmbH (Tübingen, Germany). Protein secretion analysis was performed using the supernatants.
To quantify the interleukin and chemokine protein-level after stimulation with huBPI, Zymd, and (R)-Pam CSK4, a multiplex-system was used and determined by using the Luminex® technology (Austin, TX, USA). The cytokines were captured with anti-mouse capture-antibodies and detected by biotinylated antibodies specific for the respective protein (Table 3). Protein concentrations were calculated using a reconstituted standard curve of the analyzed proteins (SM039, #LMC4031, Lot #1438354; Thermo Fisher Scientific; Standard Mix 1a, #EPX010-20603-901, Lot #111709101, eBioscience).

BPI [2] = target: T1, BPI; assay: MicroScale Thermophoresis (MST) binding of ligands to BPI; details: 5 nM labeled protein, 25° C. (FIGS. 5A, 5C, 8A, 8B)
Method: (§2) BPIN (A) and rBPI were labeled with NT647 in PBS pH 7.4 (Monolith NT™ Protein Labeling Kit RED-NHS, NanoTemper Technologies, Munich, Germany). Concentration of labeled protein was determined using the NanoDrop (ThermoScientific, Wilmington, NC, USA) and Bradford assay (Promega, Mannheim, Germany). MST binding experiments were carried out with 5 nM labeled protein in binding buffer (10 mM HEPES pH 7.4, 150 mM NaCl, 0.1% Tween) with 0.196-6,436 nM of Pam3CSK4 (bLP), or 0.61-20,000 nM of LTA SPΔlgt (LTA), or >0.61-20,000 nM WTA SPΔlgt (WTA) at 20%-40% MST power, 20% LED power in premium capillaries on a Monolith NT.115 pico device at 25° C. (NanoTemper Technologies, Munich, Germany). Pam3CSK4, (bLP) was obtained from EMC Microcollections GmbH (Tübingen, Germany), LTA and WTA were prepared as published previously. MST timetraces were recorded, and the temperature jump and thermophoresis or thermophoresis was analyzed. Binding graphs of each independent experiment were normalized to the fraction bound.
as §1, with “TMB (BD OptEIA™ TMB Substrate Reagent Set, BD Biosciences, Heidelberg, Germany) was used as a substrate for peroxidase.” left out, “Preincubation with a BPI ligand inhibits binding in a concentration-dependent manner.” left out

BPI [3] = assay: as above; design: species or system human; details: MST, 0.196-6,436 nM Pam3CSK4 (FIG. 5A)
Method: as §2
as §1, with “TMB (BD OptEIA™ TMB Substrate Reagent Set, BD Biosciences, Heidelberg, Germany) was used as a substrate for peroxidase.” left out, “Preincubation with a BPI ligand inhibits binding in a concentration-dependent manner.” left out

[4] = system: bone-marrow derived dendritic cells; assay: Microarray gene expression analysis in BMDCs; type: cell-based, C57BL/6J mice; details: 200 nM huBPI or muBPI, 4 h, microarray (FIG. 2A)
Method: All methods mentioned in this example were carried out as described in Example 1. BMDCs were seeded into a tissue-culture-treated 96-well plate in VLE-RPMI 1640 media (10% FCS, 10% Penicillin-Streptomycin, 50 μM β-Mercaptoethanol) and stimulated with 200 nM huBPI or muBPI. 4 h after stimulation, gene expression analysis was performed by microarray analysis (Affymetrix Mouse Gene 2.0 ST, FIGS. 2A and 2B).

competition of BPI binding in ODN 1826 coated plates (BPI [1]; biotinylated ODN 1826, n=3 (FIG. 7B)): competitive binding was present
Molecule: polyinosinic: polycytidylic acid [Poly(I:C)]

Molecule: ODN 1826
binding of BPI to plate-bound biotinylated ligand (BPI [1]; Streptavidin-coated plates, absorbance 450 nm, n=4 (FIG. 7A)): Binding of BPI to both LPS and CpG ODN was observed

binding to BPI (MST) (BPI [2]): shown to bind to bLPs
Affinity of BPI to bLP (BPI [3]): within a nanomolar range
Molecule: (R)-Pam3CSK4 [bLP]
stimulatory effect on the expression of IL-6 (IL-6 level), BPI vs Zymd vs bLP (BMDCs): similar

Molecule: phosphatidyl-inositol lipomannan [PiLM]
binding to BPI (MST) (BPI [2]): Binding of phosphatidyl-inositol lipomannan (PiLM) to BPI is shown

Molecule: phosphatidyl-inositol lipoarabinomannan [PiLAM]
competition of BPI binding in biotinylated LPS coated plates (BPI [1]; LPS biotin 2 μg/ml, 20 nM BPI, n=3 (FIG. 8C)): binding is conserved

B1: murine BPI: recombinant murine BPI, aa28-483 of muBPI, expressed in HEK293T cells (protein, listed as Mus musculus)
chain: TDPGFVAMISQKGLDFACQQGVVELQKELQAISVPDFSGVFKIKHLGKGSYEFYSMAVDGFHIPNPKIEMLPSDGLRVFIKDASIKINGKWMSRKNFLKAGGNFELSIQGVSISTDLILGSDSSGHITTICSNCDSHIDSVHIKISGSMLGWLIRLFHRKIETSLKNIIYKKICKIVRDSVSSKLQPYLKTLSVITRVDDVTSVDYSLLAPLTTTNQFLEGQLKGEFFWRGHRDPLPIHPPVMRFVPNGAYMVCMGISDYFFNTEVLAYQQSGTLKMTLGGQLLSNNGRFQLNTDFLRTFLPKVAKMFPSMGVQLLISAPVPVHLSIQPSGLSFNPKLETQAFVVLPNASLVPLFVLGMKTNASLEVDAEENRLVGEMKLGSRWLLELKESKFGPFKVEYLEDVINYLVSTLVLPKINERLRRGFPLPLPAGIRFSHFTFYPYQNFLLLEADLHLI
immunostimulatory effect on BMDCs (gene expression) [4]: shows an immunostimulatory effect on BMDCs

Reference: US12527862B2, “Bactericidal/permeability increasing protein for use in a method of immunization, preferably as an adjuvant in a method of vaccination” (UNIVERSITÄT REGENSBURG, priority 2018, dated 2026)
